Source: publication PMC12229680, “Neuroprotective and intraocular pressure lowering effects of dual-functional memantine nitrate MN-08 on the experimental models of glaucoma” (Scientific Reports, 2025)

Tests used:
[1] = test system: preclinical models and glaucoma patients; design: method as in PMID 25488946, PMID 28234563, PMID 21396362; conditions: cited from earlier work
glaucoma patients = conditions: cited from earlier work
[2] = test system: retinal ganglion cells (RGCs) in retinal ischemia–reperfusion injury rats; assay: Retinal ischemia–reperfusion injury model in rats (HE staining, Brn-3a immunofluorescence); type: in vivo, rat; conditions: Memantine 10 mg/kg tail vein, vs Model group
Protocol: Male Sprague Dawley rats were anesthetized with pentobarbital sodium (30 mg/kg, i.p.). Local anesthesia was administered to the corneas using tetracaine hydrochloride, followed by pupil dilation with tropicamide. A 30-gauge infusion needle was inserted into the anterior chamber of the eye and connected to a normal saline reservoir until the iris turned white. Retinal ischemia was maintained for 1 h at IOP of 110 mmHg. Upon careful withdrawal of the needle, IOP returned to normal, thereby inducing retinal ischemia–reperfusion injury. MN-08 (12 mg/kg) and Memantine (10 mg/kg) were administered via tail vein injection at 3 and 6 h post-surgery and continued twice daily for the subsequent two days. […]
Rats were euthanized by deep anesthetization with pentobarbital sodium (100 mg/kg, i.p.), and their eyes were enucleated for histology analysis. […] Ganglion cell complex (GCC) thickness and the RGCs numbers (retinal ganglion cell layer) were measured and analyzed with ImageJ software.
Eyes of sacrificed rats were rapidly removed; the cornea was cut along the corneoscleral rim after rinsing with PBS under the microscope. […] RGCs were observed using a fluorescence microscope (Olympus, Tokyo, Japan). The number of Brn-3a positive cells was counted manually in five randomly selected fields of view for each region of the whole-mount retina (including the center, mid-periphery, and periphery).

[3] = test system: human trabecular meshwork cells (HTMCs); assay: cGMP ELISA assay in HTMCs; type: cell-based; conditions: 30 min
Protocol: Primary human trabecular meshwork cells (HTMCs) were isolated from the juxtacanalicular and corneoscleral regions of the human eye from ScienCell Research Laboratories (ScienCell, Carlsbad, CA). HTMCs were maintained in a complete medium consisting of DMEM enriched with 10% fetal bovine serum (FBS) and antibiotics (100 U/ml penicillin and 100 μg/ml streptomycin). Cells were cultured in a humidified incubator containing 5% CO2 at 37 °C. Experiments are conducted using HTMCs between the 5th and 8th passages to avoid cellular senescence. All reagents were obtained from Gibco (San Diego, CA, USA).
HTMCs were seeded at a density of 2 × 10^5 cells per well in 6-well plates. When reaching 80% confluency, the cells were subsequently incubated overnight in low-serum medium (DMEM supplemented with 0.5% FBS). […] After incubating, cells were harvested and lysed, and the levels of cGMP were detected by an ELISA kit (Abcam Corporation, Cambridge, UK). The procedure was conducted following the instructions provided by the manufacturer.

[4] = test system: carbomer-induced glaucoma rabbit model; assay: Carbomer-induced experimental glaucoma model in rabbits (IOP); type: in vivo; conditions: latanoprost 0.005% single topical instillation; 0-360 min
Protocol: The methods were performed as previously described. New Zealand rabbits were anesthetized using an auricular vein injection of 60 mg/kg pentobarbital sodium. Local anesthesia of the corneas was achieved using tetracaine hydrochloride, followed by pupil dilation with tropicamide. An experimental glaucoma model was established by bilaterally injecting 0.25% carbomer (0.1 mL) into the anterior eye chamber of the rabbits. On the fifth day post-carbomer injection, stable high IOP was induced in the rabbits. MN-08 (0.5%, 0.2%, 0.1%, and 0.02%) or latanoprost (0.005%) was administered with a single topical instillation. IOP was measured continuously at 0, 30, 60, 120, 240, and 360 min following instillation with MN-08 or latanoprost (with 5 consecutive measurements being averaged to obtain a single value). At the last IOP measurement, the rabbits were euthanized under sodium pentobarbital anesthesia (100 mg/kg, i.v).

Which “reduction in IOP compared to latanoprost” value [1] does the source give for `O=C(CCC/C=C\C[C@@H]1[C@@H](CC[C@@H](O)CCc2ccccc2)[C@H](O)C[C@@H]1O)OCCCCO[N+](=O)[O-]` [Latanoprostene bunod (LBN), Latanoprostene bunod] here?
Its value is “great reduction”.

With `CC12CC3CC(C)(C1)CC(N)(C3)C2` [Memantine] as the molecule, how does the glaucoma progression (glaucoma patients; clinical trials) read?
The glaucoma progression was “failed to significantly delay”.

What about the “effect in protecting visual function” value (glaucoma patients; phase 3 clinical trial) of the same molecule?
Its value is “no significant effect”.

And the “degree of retinal damage (HE staining)” value ([2]; 3 and 6 h post-surgery then twice daily for two days)?
The value was “reduced”.

What about the “survival of RGCs (Brn-3a positive cells)” value [2] of the same molecule?
Its value is “significantly increased”.

What about the cGMP levels ([3]; memantine 10 μM) of the same molecule?
Its cGMP levels is “neither latanoprost (0.1 μM) nor memantine (10 μM) had any statistically significant effects”.

With `CC(C)OC(=O)CCC/C=C\C[C@@H]1[C@@H](CC[C@@H](O)CCc2ccccc2)[C@H](O)C[C@@H]1O` [latanoprost] as the molecule, how does the cGMP levels ([3]; latanoprost 0.1 μM) read?
The cGMP levels was “neither latanoprost (0.1 μM) nor memantine (10 μM) had any statistically significant effects”.

What about the “carbomer-induced IOP elevation (change from baseline)” value [4] of the same molecule?
Its value is “reduced”.
